The text below walks through data of patent US6972296B2, “Carboxylic acid derivatives that inhibit the binding of integrins to their receptors” (Encysive Pharmaceuticals Inc., priority 1999, dated 2005).

Molecules are shown by their SMILES.

The target in one assay is T1, α4β1 integrin (Homo sapiens, UniProt P05556+P13612).
T1 construct: endogenous in cells; host or cells: Ramos cells
T1 sequence (P13612 34-1032): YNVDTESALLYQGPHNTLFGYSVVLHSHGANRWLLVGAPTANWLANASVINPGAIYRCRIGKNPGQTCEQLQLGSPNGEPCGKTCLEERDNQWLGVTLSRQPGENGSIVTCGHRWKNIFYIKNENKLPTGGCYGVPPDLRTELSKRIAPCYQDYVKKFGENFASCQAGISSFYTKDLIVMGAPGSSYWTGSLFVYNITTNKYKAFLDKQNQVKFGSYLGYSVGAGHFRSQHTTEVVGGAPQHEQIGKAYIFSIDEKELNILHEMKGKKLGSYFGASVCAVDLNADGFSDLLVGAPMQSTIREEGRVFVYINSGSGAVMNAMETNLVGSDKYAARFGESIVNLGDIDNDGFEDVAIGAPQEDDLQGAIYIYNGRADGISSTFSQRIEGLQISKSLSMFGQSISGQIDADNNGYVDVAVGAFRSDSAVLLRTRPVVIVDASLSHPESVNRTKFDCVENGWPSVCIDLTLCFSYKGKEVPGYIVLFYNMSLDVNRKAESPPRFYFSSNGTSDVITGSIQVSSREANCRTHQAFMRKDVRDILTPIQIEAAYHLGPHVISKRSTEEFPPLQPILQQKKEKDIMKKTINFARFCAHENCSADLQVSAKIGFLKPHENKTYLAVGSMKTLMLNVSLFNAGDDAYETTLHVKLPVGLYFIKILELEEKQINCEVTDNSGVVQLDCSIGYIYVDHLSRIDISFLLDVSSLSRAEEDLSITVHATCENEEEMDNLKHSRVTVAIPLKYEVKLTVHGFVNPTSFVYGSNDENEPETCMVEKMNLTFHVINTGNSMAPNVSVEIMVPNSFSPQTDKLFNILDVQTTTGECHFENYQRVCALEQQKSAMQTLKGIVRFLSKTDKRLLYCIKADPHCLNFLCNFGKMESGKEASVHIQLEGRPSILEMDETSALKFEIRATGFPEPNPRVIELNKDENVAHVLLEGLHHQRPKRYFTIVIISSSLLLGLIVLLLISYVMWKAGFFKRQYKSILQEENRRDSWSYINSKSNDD
T1 sequence (P05556 21-798): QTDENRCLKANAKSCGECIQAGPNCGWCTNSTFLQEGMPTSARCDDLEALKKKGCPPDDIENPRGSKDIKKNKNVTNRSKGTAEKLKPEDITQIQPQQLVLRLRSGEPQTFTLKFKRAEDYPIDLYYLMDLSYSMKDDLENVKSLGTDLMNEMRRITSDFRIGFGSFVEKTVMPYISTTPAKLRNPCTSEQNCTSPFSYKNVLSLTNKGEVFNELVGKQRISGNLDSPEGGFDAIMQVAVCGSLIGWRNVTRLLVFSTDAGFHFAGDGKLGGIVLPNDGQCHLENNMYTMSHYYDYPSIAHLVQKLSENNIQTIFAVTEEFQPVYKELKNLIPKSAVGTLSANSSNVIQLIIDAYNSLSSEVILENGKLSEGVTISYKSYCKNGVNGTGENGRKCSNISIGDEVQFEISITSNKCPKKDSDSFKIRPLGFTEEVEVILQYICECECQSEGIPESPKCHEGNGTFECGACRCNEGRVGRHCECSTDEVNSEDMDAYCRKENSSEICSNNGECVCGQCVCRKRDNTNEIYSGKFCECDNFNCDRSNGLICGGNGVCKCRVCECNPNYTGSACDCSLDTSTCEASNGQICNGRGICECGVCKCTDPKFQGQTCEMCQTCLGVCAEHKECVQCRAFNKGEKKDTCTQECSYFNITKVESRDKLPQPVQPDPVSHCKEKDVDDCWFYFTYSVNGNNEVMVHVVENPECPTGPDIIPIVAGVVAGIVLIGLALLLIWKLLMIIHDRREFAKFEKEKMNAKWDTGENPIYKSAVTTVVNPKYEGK
Description: Adhesion of calcein-labeled Ramos cells to CS1 (fibronectin) peptide conjugated ovalbumin. The assay is classed as cell-based. As to conditions: Table 4; Ramos cell adhesion to CS1 conjugated ovalbumin, 30 minutes at 37° C. As for the experimental part:
A procedure in which a 26-amino acid peptide containing the CS1 sequence of fibronectin with an N-terminal Cys ([…]) was coupled to maleimide activated ovalbumin was used to determine the efficacy of the compounds synthesized. Bovine serum albumin (BSA) and CS1 conjugated ovalbumin were coated onto 96-well polystyrene plates at 0.5 μg/ml in TBS (50 mM TRIS, pH 7.5; 150 mM NaCl) at 4° C. for 16 hours. The plates were washed three times with TBS and blocked with TBS containing 3% BSA at room temperature for 4 hours. Blocked plates were washed three times in binding buffer (TBS; 1 mM MgCl2; 1 mM CaCl2; 1 mM MnCl2) prior to assay. Ramos cells fluorescently labeled with calcein AM were resuspended in binding buffer (10^7 cells/ml) and diluted 1:2 with same buffer with or without compound. 100 μM of compound was added. The cells were added immediately to the wells (2.5×10^5 cells/well) and incubated for 30 minutes at 37° C. Following three washes with binding buffer, adherent cells were lysed and quantitated using a fluorometer. IC50 is defined as the dose required to give 50% inhibition, measured in μM for Tables 2 and 4. The lower the IC50 value and the greater the percentage of inhibition, the more efficient the compound is at prevention of cell adhesion.
By IC50 is commonly meant the concentration that gives 50% inhibition. With `O=C(O)CC(NC(=O)Nc1cccn(Cc2ccccc2Cl)c1=O)c1cccc(Cl)c1` (stereo not shown), the IC50 was 1000 nM.

As for `O=C(O)CC(NC(=O)Nc1cccn(Cc2ccccc2Cl)c1=O)c1ccc(Cl)cc1` (stereo not shown), the IC50 was 400 nM.

Take `O=C(O)CC(NC(=O)Nc1cccn(Cc2ccccc2Cl)c1=O)c1ccc(Cl)c(Cl)c1` (stereo not shown): the IC50 is 1000 nM.

In the case of `CC(C)C[C@H](CC(=O)O)NC(=O)Nc1c(N2CCOCC2)ccn(Cc2ccccc2Cl)c1=O`, the IC50 was 100 nM.

On to `O=C(O)C[C@H](NC(=O)Nc1cccc(NCc2cccs2)c1)c1ccc2c(c1)OCO2`, for which the IC50 is 5000 nM.

Turning to `COc1ccccc1Cn1cccc(NC(=O)N[C@@H](CC(=O)O)c2ccc3c(c2)OCO3)c1=O`, the IC50 was 500 nM.

Take `O=C(O)C[C@H](NC(=O)Nc1cccn(Cc2ccccc2Cl)c1=O)c1ccc2c(c1)OCO2`: the half-inhibitory concentration (IC50) is 300 nM.

In the case of `O=C(O)C[C@H](NC(=O)Nc1cccn(Cc2cccc(Cl)c2)c1=O)c1ccc2c(c1)OCO2`, the IC50 was 800 nM.

In the case of `N#Cc1cccc(CN2CCCCC(NC(=O)N[C@@H](CC(=O)O)c3ccc4c(c3)OCO4)C2=O)c1` (stereo partly shown), the 50% inhibitory concentration (IC50) was 40 nM.

Take `Cc1cccc(Cn2cccc(NC(=O)N[C@@H](CC(=O)O)c3ccc4c(c3)OCO4)c2=O)c1`: the IC50 was 1500 nM.

With `O=C(O)C[C@H](NC(=O)Nc1cccn(Cc2cc(Cl)cc(Cl)c2)c1=O)c1ccc2c(c1)OCO2`, the IC50 is 5000 nM.

Consider `COc1ccc(Cn2cccc(NC(=O)N[C@@H](CC(=O)O)c3ccc4c(c3)OCO4)c2=O)cc1`, for which the IC50 is 3000 nM.

Regarding `O=C(O)C[C@H](NC(=O)Nc1cccn(Cc2ccc(Cl)cc2)c1=O)c1ccc2c(c1)OCO2`, the IC50 was 3000 nM.

As for `O=C(O)C[C@H](NC(=O)Nc1cccn(Cc2ccc(F)cc2)c1=O)c1ccc2c(c1)OCO2`, the IC50 was 2000 nM.

As to `O=C(O)C[C@H](NC(=O)Nc1cccn(CCCOc2ccccc2)c1=O)c1ccc2c(c1)OCO2`, the IC50 is 14000 nM.

Consider `O=C(O)C[C@H](NC(=O)Nc1cccn(Cc2cccc(C(F)(F)F)c2)c1=O)c1ccc2c(c1)OCO2`, for which the 50% inhibitory concentration (IC50) is 800 nM.

Take `O=C(O)C[C@H](NC(=O)NC1CCCCN(Cc2ccccc2)C1=O)c1ccc2c(c1)OCO2` (stereo partly shown): the IC50 was 15 nM.

In the case of `O=C(O)C[C@H](NC(=O)Nc1cccc(Oc2ccccc2)c1)c1ccc2c(c1)OCO2`, the IC50 is 50000 nM.

For the molecule `COc1cccc(OC)c1[C@H](CC(=O)O)NC(=O)Nc1cccn(Cc2ccccc2Cl)c1=O`, the IC50 was 6000 nM.

Regarding `COc1cccc([C@H](CC(=O)O)NC(=O)Nc2cccn(Cc3cccs3)c2=O)c1`, the 50% inhibitory concentration (IC50) is 1400 nM.

Consider `COc1cc(OC)cc([C@H](CC(=O)O)NC(=O)Nc2cccn(Cc3cccs3)c2=O)c1`, for which the IC50 was 700 nM.

For the molecule `COc1ccc([C@H](CC(=O)O)NC(=O)Nc2cccn(Cc3cccs3)c2=O)cc1`, the IC50 was 800 nM.

Consider `O=C(O)C[C@H](NC(=O)Nc1cccn(Cc2cccs2)c1=O)c1ccc(F)cc1`, for which the IC50 is 1600 nM.

`Cc1ccc([C@H](CC(=O)O)NC(=O)Nc2cccn(Cc3csc(C)n3)c2=O)cc1`: the IC50 was 1000 nM.

Take `Cc1ccc([C@H](CC(=O)O)NC(=O)Nc2cccn(Cc3ccccc3[N+](=O)[O-])c2=O)cc1`: the IC50 was 1000 nM.

Take `Cc1ccc([C@H](CC(=O)O)NC(=O)Nc2cccn(Cc3ccc([N+](=O)[O-])cc3)c2=O)cc1`: the 50% inhibitory concentration (IC50) was 1000 nM.

Regarding `Cc1ccc([C@H](CC(=O)O)NC(=O)Nc2cccn(Cc3c(C)cc(C)cc3C)c2=O)cc1`, the IC50 is 2500 nM.

As for `Cc1ccccc1[C@H](CC(=O)O)NC(=O)Nc1cccn(Cc2ccccc2Cl)c1=O`, the IC50 was 3000 nM.

As for `Cc1ccc([C@H](CC(=O)O)NC(=O)Nc2cccn(Cc3nc4ccccc4o3)c2=O)cc1`, the IC50 is above 10000 nM.

As to `Cc1ccc([C@H](CC(=O)O)NC(=O)Nc2cccn(CC(=O)Nc3ccccc3O)c2=O)cc1`, the IC50 was above 10000 nM.

Regarding `Cc1ccc([C@H](CC(=O)O)NC(=O)Nc2cccn(Cc3c(N)cccc3Cl)c2=O)cc1`, the IC50 was 2000 nM.

`Cc1ccc([C@H](CC(=O)O)NC(=O)Nc2cccn(Cc3ccc(Cl)cc3Br)c2=O)cc1`: the IC50 was 1000 nM.

On to `Cc1ccc([C@H](CC(=O)O)NC(=O)Nc2cccn(Cc3cc(NS(C)(=O)=O)ccc3Br)c2=O)cc1`, for which the IC50 was 250 nM.

For the molecule `Cc1ccc([C@H](CC(=O)O)NC(=O)Nc2cccn(Cc3cc(F)ccc3Br)c2=O)cc1`, the IC50 was 500 nM.

As for `Cc1ccc([C@H](CC(=O)O)NC(=O)Nc2cccn(Cc3cc([N+](=O)[O-])ccc3Br)c2=O)cc1`, the IC50 is 2000 nM.

As for `COc1ccc([C@H](CC(=O)O)NC(=O)Nc2cccn(Cc3ccccc3Br)c2=O)cc1C`, the IC50 was 200 nM.

Take `Cc1ccc([C@H](CC(=O)O)NC(=O)Nc2cccn(Cc3ccc(F)cc3Cl)c2=O)cc1`: the IC50 is 350 nM.

On to `Cc1ccc([C@H](CC(=O)O)NC(=O)Nc2cccn(Cc3c(F)cccc3Cl)c2=O)cc1`, for which the IC50 was 100 nM.

`Cc1ccc([C@H](CC(=O)O)NC(=O)Nc2cccn(Cc3c(Cl)cccc3[N+](=O)[O-])c2=O)cc1`: the IC50 was 4000 nM.

As for `Cc1ccc([C@H](CC(=O)O)NC(=O)Nc2cnc(C)n(Cc3ccccc3Cl)c2=O)cc1`, the IC50 was 90 nM.

As to `O=C(O)C[C@H](NC(=O)Nc1cccn(Cc2ccccc2Cl)c1=O)c1ccc2c(c1)CCC2`, the IC50 was 300 nM.

`O=C(O)C[C@H](NC(=O)Nc1cccn(Cc2ccccc2Cl)c1=O)c1c(O)cccc1O`: the 50% inhibitory concentration (IC50) was 3000 nM.

With `CCCS(=O)(=O)Nc1ccn(Cc2ccccc2Cl)c(=O)c1NC(=O)N[C@@H](CC(=O)O)c1ccc(C)cc1`, the IC50 was 30 nM.

Turning to `O=C(O)C[C@H](NC(=O)Nc1c(O)ccn(Cc2ccccc2Cl)c1=O)c1ccc(OC(F)(F)F)cc1`, the IC50 is 15 nM.

Take `COc1ccc([C@H](CC(=O)O)NC(=O)Nc2c(O)ccn(Cc3ccccc3Cl)c2=O)c(C)c1C`: the concentration for half-maximal inhibition (IC50) was 35 nM.

For `CCOc1ccc([C@H](CC(=O)O)NC(=O)Nc2c(O)ccn(Cc3ccccc3Cl)c2=O)cc1`, the IC50 was 20 nM.

As to `CCc1ccc([C@H](CC(=O)O)NC(=O)Nc2c(O)ccn(Cc3ccccc3Cl)c2=O)cc1`, the IC50 was 25 nM.

Regarding `Cc1ccc([C@H](CC(=O)O)NC(=O)Nc2cn(Cc3ccccc3Cl)ccc2=O)cc1`, the IC50 was 100 nM.

On to `Cc1ccc([C@H](CC(=O)O)NC(=O)Nc2cccn(Cc3ccccc3C#N)c2=O)cc1`, for which the IC50 is 100 nM.

Regarding `Cc1ccc([C@H](CC(=O)O)NC(=O)Nc2cccn(Cc3ccc(C(F)(F)F)cc3F)c2=O)cc1`, the IC50 is 3000 nM.

`Cc1ccc([C@H](CC(=O)O)NC(=O)Nc2cccn(Cc3ccc(F)cc3F)c2=O)cc1`: the IC50 is 1300 nM.

As for `Cc1ccc([C@H](CC(=O)O)NC(=O)Nc2cccn(Cc3cc(F)ccc3F)c2=O)cc1`, the IC50 is 800 nM.

Consider `Cc1ccc([C@H](CC(=O)O)NC(=O)Nc2cccn(Cc3cc(C)ccc3C)c2=O)cc1`, for which the IC50 is 150 nM.

`Cc1ccc([C@H](CC(=O)O)NC(=O)Nc2cccn(Cc3c(F)cccc3F)c2=O)cc1`: the IC50 is 300 nM.

As to `Cc1ccc([C@H](CC(=O)O)NC(=O)Nc2cccn(Cc3cccc(O)c3)c2=O)cc1`, the IC50 is 200 nM.

On to `Cc1ccc([C@H](CC(=O)O)NC(=O)Nc2cccn(Cc3c(C)noc3C)c2=O)cc1`, for which the IC50 was 3000 nM.

`Cc1ccc([C@H](CC(=O)O)NC(=O)Nc2cccn(Cc3ccc(C(C)(C)C)cc3)c2=O)cc1`: the IC50 is 6000 nM.

Consider `Cc1ccc([C@H](CC(=O)O)NC(=O)Nc2cccn(Cc3ccc(Cl)cc3)c2=O)cc1`, for which the IC50 was 2000 nM.

Consider `CC(=O)Nc1ccc(Br)c(Cn2cccc(NC(=O)N[C@@H](CC(=O)O)c3ccc(C)cc3)c2=O)c1`, for which the IC50 is 200 nM.

Consider `Cc1ccc([C@H](CC(=O)O)NC(=O)Nc2cccn(Cc3cc(N)ccc3Br)c2=O)cc1`, for which the IC50 is 80 nM.

As to `Cc1ccc([C@H](CC(=O)O)NC(=O)Nc2cccn(Cc3cc(Cl)ccc3F)c2=O)cc1`, the IC50 was 2500 nM.

On to `Cc1ccc([C@H](CC(=O)O)NC(=O)Nc2cccn(Cc3ccc(Cl)s3)c2=O)cc1`, for which the IC50 was 1300 nM.

Turning to `O=C(O)C[C@H](NC(=O)Nc1cccn(Cc2cccs2)c1=O)c1cccc(C(F)(F)F)c1`, the IC50 is 2500 nM.

With `O=C(O)C[C@H](NC(=O)Nc1cccn(Cc2cccs2)c1=O)c1ccccc1`, the IC50 was 1000 nM.

Regarding `COc1cc([C@H](CC(=O)O)NC(=O)Nc2cccn(Cc3cccs3)c2=O)cc(OC)c1OC`, the IC50 is 300 nM.

As to `Cc1ccc([C@H](CC(=O)O)NC(=O)Nc2c(O)ccn(Cc3ccccc3)c2=O)cc1`, the IC50 is 30 nM.

In the case of `Cc1ccc([C@H](CC(=O)O)NC(=O)Nc2c(O)cc(C)n(Cc3ccccc3)c2=O)cc1`, the IC50 was 35 nM.

The assay is the same for the next values; noted with them: Table 5; Ramos cell adhesion to CS1 conjugated ovalbumin; dose required to give 50% inhibition.
Turning to `COc1ccc(Cl)c(Cn2ccc(O)c(NC(=O)N[C@@H](CC(=O)O)c3ccc(C)cc3)c2=O)c1`, the IC50 was 12 nM.

On to `Cc1ccc(C)c([C@H](CC(=O)O)NC(=O)Nc2c(O)ccn(Cc3ccccc3Cl)c2=O)c1`, for which the IC50 was 50 nM.

As to `O=C(O)C[C@H](NC(=O)Nc1c(O)ccn(Cc2ccccc2Cl)c1=O)c1ccc(F)c(C(F)(F)F)c1`, the IC50 was 25 nM.

As for `COc1ccccc1Cn1cccc(NC(=O)N[C@@H](CC(=O)O)c2ccc(C)cc2)c1=O`, the IC50 was 250 nM.

On to `Cc1ccc([C@H](CC(=O)O)NC(=O)Nc2c(O)ccn(Cc3cc(C(F)(F)F)cc(C(F)(F)F)c3)c2=O)cc1`, for which the IC50 was 300 nM.

For `Cc1ccc([C@H](CC(=O)O)NC(=O)Nc2c(O)ccn(Cc3ccc(F)cc3)c2=O)cc1`, the IC50 was 22 nM.
